Experimental data as given in patent US10351519B2, “Sulfamate derivative compounds, processes for preparing them and their uses” (BIO-PHARM SOLUTIONS CO., LTD., priority 2016, dated 2019).

How the values were obtained:
Assay type in all cases: in vivo
Sprague-Dawley rats [1] = assay: Antiallodynic activity on vincristine-induced pain model; details: intraperitoneally; for ED50: Rattus norvegicus, ip
Method: Male, Sprague-Dawley rats (160-180 g, Nara Bio, Korea) were habituated for 1 week before surgery and allowed free access to food and water throughout the experimentation. Room temperature and humidity were maintained at 24±2 and 50±10%, respectively.
The vincristine-induced pain model was established by the procedure of Natsuko et al. (2001) with minor modifications. Vincristine was intravenously infused continuously for 14 days using a mini-osmotic pump as follows: 30 ug/kg vincristine sulfate solution (Hospira, Australia) was diluted with 0.9% saline. The pumps (Alzet Model 2002, USA) were filled with the vincristine solution and primed by incubation at 37 for 4 hours before the infusion. Briefly, animal were put under gaseous anesthesia with isoflurane. A catheter made from PE-60 tube was inserted into an external jugular vein in rat. Sham controls were prepared in the same manner, with the external jugular vein exposed, but with the external jugular vein not cut down. […]
Tactile sensitivity (Mechanical allodynia) was evaluated using von Frey monofilaments before and after treatment, and animals were used withdrawal threshold value was less than 4 g. […] The tactile sensitivity for ipsilateral hind paw was measured using the up-and-down method (Dixon, 1980) with seven von Frey monofilaments (0.4, 1, 2, 4, 6, 8, and 15 g) to 3 trials. […] The 50% paw withdrawal threshold for each paw was calculated using the following formula: [Xth] log=[vFr] log+ky where [vFr] is the force of the last von Frey used, k=0.2249 which is the average interval (in log units) between the von Frey monofilaments, and y is a value that depends upon the pattern of withdrawal responses (Dixon, 1980).
Antiallodynic effect of compound was evaluated at the three dose, intraperitoneally administrated in a volume of 5 ul/g, bw in a vehicle of 30% (v/v) PEG or 20% (v/v) Tween 80. […]
The relative values compared to the sham (% control) were calculated and shown in Table 5, which show an antiallodynic effect of Compound 2&7 on vincristine-induced pain model in rats.

ICR mice = assay: Chemical induced seizure model (strychnine); details: intraperitoneal
Method: Male ICR mice (purchased from Orient Bio Inc. Korea) of body weight 19-27 g were used for these studies. The test materials were administered intraperitoneal route in a volume of 10 ul/g weight. Pharmacological effects of all the test materials were evaluated to compared test groups (n=6) with a control group (n=6). Control group was administrated vehicle, only. The peak time was determined by administration test material's random dose for 0.5, 1, 2 hour. The time that the most protect was defined peak time and ED50 was determined by other dose administration at peak time. Strychnine was dissolved in 0.9% saline and administered intraperitoneally (i.p.) at its CD97 (convulsive dose 97%) the dose of strychnine that produced clonic seizures in 97% in a volume of 10 ul/g body weight. The animals were then transferred to observation cages and observed continuously for 30 min. Clonic seizure was elicited in approximately 95% of control group. Protection was defined as complete absence of a clonic seizure over the 30-min observation period. The time that the most protect was defined peak time and ED50 was determined by other dose administration at peak time. The effective dose of compound necessary to protect against seizures to 50% of controls (i.e. ED50) was determined by log probit analysis using Excel 2007 (Microsoft).

Sprague-Dawley rats [2] = assay: Lithium-pilocarpine induced epilepsy test, intervention; details: Rattus norvegicus, iv, i.v. at SE onset, read-out: Lithium pilocarpine model(inter) ED50
Method: Male Sprague-Dawley rats (purchased from Orient Bio Inc. Korea) of body weight 175 grams were used for these studies and 3 rats per cage were housed for 4-5 days. On the day prior to SE, rats received 127 mg/kg lithium chloride (Sigma, St. Louis, Mo., U.S.A.) intraperitoneally (i.p.). Approximately 18-20 h following this treatment, rats were given an i.p. injection of CD97 dose (30-43 mg/kg) pilocarpine (Sigma). An i.p. injection of 2 mg/kg methyl-scopolamine (Sigma) was administered 30 min prior to pilocarpine to block the effects of the muscarinic agonist on peripheral cholinergic receptors. Test drugs were dissolved in 20% tween80 (Sigma).
The drugs were administered intravenously (i.v.) in a volume of 2 ul/g body weight at SE onset. Pharmacological effects of all of the test materials were evaluated to compare test groups (n=3-6) with a control group (n=3-6). Control group was administered vehicle only. The animals were then transferred to observation cages and observed continuously for 90 min. Seizure was elicited in approximately 95% of the control group. Protection was defined as complete absence of seizure grade 3-5 (Racine scale; Racine, 1972) over the 90-min observation period. The effective dose of the compound necessary to protect 50% of the animals against seizures compared to controls (i.e. ED50) was determined by a curve fitting program (Excel 2007, Microsoft).

| SMILES | ED50 (Sprague-Dawley rats [1]) [mg/kg] | Vincristine-induced pain model Peak Time (Sprague-Dawley rats [1]) [h] | ED50 (ICR mice; Mus musculus, ip, read-out: Strychnine test ED50) [mg/kg] | Strychnine test Peak Time (ICR mice) [h] | ED50 (Sprague-Dawley rats [2]) [mg/kg] |
| --- | --- | --- | --- | --- | --- |
| C[C@@H](OS(N)(=O)=O)[C@H](O)c1ccccc1Cl [Example 2, (1R, 2R)-1-(2-chlorophenyl)-1-hydroxypropan-2-yl sulfamate] | > 20 | – | – | – | – |
| C[C@H](OS(N)(=O)=O)[C@@H](O)c1c(Cl)cccc1Cl [Example 7, (1S, 2S)-1-(2,6-dichlorophenyl)-1-hydroxypropan-2-yl sulfamate] | 10.3 | 0.5 | 75.8 | 0.5 | 23.3 |
| C[C@@H](OS(N)(=O)=O)[C@H](O)c1c(Cl)cccc1Cl [Example 8, (1R, 2R)-1-(2,6-dichlorophenyl)-1-hydroxypropan-2-yl sulfamate] | – | – | – | – | 44.8 |
